Measured values from patent US6403794B2, “Substituted 2-amino-4-alkylamino-1,3,5-triazines as herbicides” (Bayer Aktiengesellschaft, priority 1996, dated 2002).
Like-named read-outs stand apart in the source and are kept apart here.

Legend:
Type in all cases: in vivo
Wheat [1] = test: Pre-emergence test; settings: greenhouse, 500 g of ai./ha, after three weeks
Description: (§1) Solvent: 5 parts by weight of acetone
(§2) Emulsifier: 1 part by weight of alkylaryl polyglycol ether
(§3) To produce a suitable preparation of active compound, 1 part by weight of active compound is mixed with the stated amount of solvent, the stated amount of emulsifier is added and the concentrate is diluted with water to the desired concentration.
(§4) Seeds of the test plants are sown in normal soil. After about 24 hours, the soil is watered with the preparation of active compound. The amount of water per unit area is advantageously kept constant. The concentration of active compound in the preparation is immaterial, only the application rate of active compound per unit area matters.
(§5) After three weeks, the degree of damage to the plants is scored visually in % damage in comparison to the development of the untreated control.
(§6) 0%=no effect (like untreated control)

Digitaria = test: Pre-emergence test; settings: greenhouse, 500 g of ai./ha, after three weeks
Description: as §1, §2, §3, §4, §5, §6

Echinochloa [2] = test: Pre-emergence test; settings: greenhouse, 500 g of ai./ha, after three weeks
Description: as §1, §2, §3, §4, §5, §6

Abutilon [3] = test: Pre-emergence test; settings: for pest or weed control at 500 g/ha / pest or weed control at 1000 g/ha: Abutilon, 504 h, read-out: degree of damage to the plants (% damage), Abutilon; for pest or weed control at 500 g/ha: 500 g of ai./ha
Description: as §1, §2, §3, §4, §5, §6

Polygonum [4] = test: Pre-emergence test; settings: greenhouse, 500 g of ai./ha, after three weeks
Description: as §1, §2, §3, §4, §5, §6

Datura = test: Pre-emergence test; settings: greenhouse, 500 g of ai./ha, after three weeks
Description: as §1, §2, §3, §4, §5, §6

Veronica = test: Pre-emergence test; settings: greenhouse, 500 g of ai./ha, after three weeks
Description: as §1, §2, §3, §4, §5, §6

weeds [5] = test: Pre-emergence test
Description: as §1, §2, §3, §4, §5, §6

Amaranthus [6] = test: Pre-emergence test; settings: for pest or weed control at 500 g/ha / pest or weed control at 1000 g/ha: Amaranthus, 504 h, read-out: degree of damage to the plants (% damage), Amaranthus; for pest or weed control at 500 g/ha: 500 g of ai./ha
Description: as §1, §2, §3, §4, §5, §6

Wheat [7] = test: Post-emergence test; settings: greenhouse, 500 g of ai./ha, after three weeks
Description: as §1, §2, §3
(§7) Test plants which have a height of 5-15 cm are sprayed with the preparation of active compound such that the particular amounts of active compounds desired are applied per unit area. The concentration of the spray liquor is chosen so that the particular amounts of active compound desired are applied in 1000 l of water/ha.
(§8) After three weeks, the degree of damage to the plants is scored visually in % damage, in comparison to the untreated control.
as §6

Solanum = test: Post-emergence test; settings: greenhouse, 500 g of ai./ha, after three weeks
Description: as §1, §2, §3, §7, §8, §6

Echinochloa [8] = test: Post-emergence test; settings: greenhouse, 500 g of ai./ha, after three weeks
Description: as §1, §2, §3, §7, §8, §6

Polygonum [9] = test: Post-emergence test; settings: greenhouse, 500 g of ai./ha, after three weeks
Description: as §1, §2, §3, §7, §8, §6

Setaria [10] = test: Post-emergence test; settings: for pest or weed control at 500 g/ha / pest or weed control at 1000 g/ha: Setaria, 504 h, read-out: degree of damage to the plants (% damage), Setaria; for pest or weed control at 500 g/ha: 500 g of ai./ha
Description: as §1, §2, §3, §7, §8, §6

Ipomoea = test: Post-emergence test; settings: greenhouse, 500 g of ai./ha, after three weeks
Description: as §1, §2, §3, §7, §8, §6

weeds [11] = test: Post-emergence test
Description: as §1, §2, §3, §7, §8, §6

Amaranthus [12] = test: Post-emergence test; settings: for pest or weed control at 500 g/ha / pest or weed control at 1000 g/ha: Amaranthus, 504 h, read-out: degree of damage to the plants (% damage), Amaranthus; for pest or weed control at 500 g/ha: 500 g of ai./ha
Description: as §1, §2, §3, §7, §8, §6

Galium [13] = test: Pre-emergence test; settings: greenhouse, 1000 g of ai./ha, after three weeks
Description: as §1, §2, §3, §4, §5, §6

Alopecurus [14] = test: Pre-emergence test; settings: greenhouse, 1000 g of ai./ha, after three weeks
Description: as §1, §2, §3, §4, §5, §6

Setaria [15] = test: Pre-emergence test; settings: greenhouse, 1000 g of ai./ha, after three weeks
Description: as §1, §2, §3, §4, §5, §6

Xanthium = test: Post-emergence test; settings: greenhouse, 1000 g of ai./ha, after three weeks
Description: as §1, §2, §3, §7, §8, §6

Abutilon [16] = test: Post-emergence test; settings: greenhouse, 1000 g of ai./ha, after three weeks
Description: as §1, §2, §3, §7, §8, §6

Galium [17] = test: Post-emergence test; settings: greenhouse, 1000 g of ai./ha, after three weeks
Description: as §1, §2, §3, §7, §8, §6

Alopecurus [18] = test: Post-emergence test; settings: greenhouse, 1000 g of ai./ha, after three weeks
Description: as §1, §2, §3, §7, §8, §6

[19] = greenhouse, 1000 g of ai./ha, after three weeks

| SMILES | activity against weeds (weeds [5]) | degree of damage to the plants (% damage), Solanum (Solanum) | degree of damage to the plants (% damage), Echinochloa (Echinochloa [8]) | degree of damage to the plants (% damage), Polygonum (Polygonum [9]) | pest or weed control at 500 g/ha (Setaria [10]; greenhouse, after three weeks) | degree of damage to the plants (% damage), Ipomoea (Ipomoea) | activity against weeds (weeds [11]) | pest or weed control at 500 g/ha (Amaranthus [12]; greenhouse, after three weeks) | degree of damage to the plants (% damage), Galium (Galium [13]) | degree of damage to the plants (% damage), Alopecurus (Alopecurus [14]) | degree of damage to the plants (% damage), Xanthium (Xanthium) | degree of damage to the plants (% damage), Abutilon (Abutilon [16]) | degree of damage to the plants (% damage), Galium (Galium [17]) | degree of damage to the plants (% damage), Alopecurus (Alopecurus [18]) | further results |
| --- | --- | --- | --- | --- | --- | --- | --- | --- | --- | --- | --- | --- | --- | --- | --- |
| CCC(CCc1ccsc1)Nc1nc(N)nc(C(F)(F)F)n1 (stereo not drawn) [Example 12] | strong activity | 100% | 90% | 100% | 95% | 100% | strong activity | 100% |  |  |  |  |  |  | degree of damage to the plants (% damage), Wheat (Wheat [1]): 0%; degree of damage to the plants (% damage), Digitaria (Digitaria): 80%; degree of damage to the plants (% damage), Echinochloa (Echinochloa [2]): 100%; pest or weed control at 500 g/ha (Abutilon [3]; greenhouse, after three weeks): 100%; degree of damage to the plants (% damage), Polygonum (Polygonum [4]): 100%; degree of damage to the plants (% damage), Datura (Datura): 100%; degree of damage to the plants (% damage), Veronica (Veronica): 100%; pest or weed control at 500 g/ha (Amaranthus [6]; greenhouse, after three weeks): 100%; degree of damage to the plants (% damage), Wheat (Wheat [7]): 10% |
| CC(C)C(CCc1ccc(Cl)cc1)Nc1nc(N)nc(C(C)(C)F)n1 (stereo not drawn) [Example 29] | strong activity |  |  |  |  |  |  |  | 80% | 70% |  |  |  |  | pest or weed control at 1000 g/ha (Abutilon [3]): 80%; pest or weed control at 1000 g/ha (Amaranthus [6]): 80% |
| CCC(CCc1cccs1)Nc1nc(N)nc(C(C)(C)F)n1 (stereo not drawn) [Example 24] |  | 95% | 100% | 95% | 80% | 100% | strong activity | 100% |  |  |  |  |  |  |  |
| CCC(CCc1ccccc1)Nc1nc(N)nc(C(F)(F)F)n1 (stereo not drawn) [Example 45] | strong activity |  |  |  |  |  | strong activity |  | 100% | 80% | 80% | 100% | 100% | 80% | degree of damage to the plants (% damage), Abutilon (Abutilon [3]; [19]): 100%; degree of damage to the plants (% damage), Setaria (Setaria [15]): 95%; degree of damage to the plants (% damage), Amaranthus (Amaranthus [6]; [19]): 100%; degree of damage to the plants (% damage), Setaria (Setaria [10]; [19]): 100%; degree of damage to the plants (% damage), Amaranthus (Amaranthus [12]; [19]): 100% |
| CCC(CCc1cccs1)Nc1nc(N)nc(C(F)(F)F)n1 (stereo not drawn) [Example 11] |  | 100% | 80% | 100% | 95% | 100% | strong activity | 100% |  |  |  |  |  |  | degree of damage to the plants (% damage), Wheat (Wheat [7]): 10% |
| CCC(CCc1ccsc1)Nc1nc(N)nc(C(C)F)n1 (stereo not drawn) [Example 19] | strong activity | 100% | 100% | 100% | 100% | 100% | strong activity | 100% |  |  |  |  |  |  | degree of damage to the plants (% damage), Wheat (Wheat [1]): 0%; degree of damage to the plants (% damage), Digitaria (Digitaria): 100%; degree of damage to the plants (% damage), Echinochloa (Echinochloa [2]): 100%; pest or weed control at 500 g/ha (Abutilon [3]; greenhouse, after three weeks): 100%; degree of damage to the plants (% damage), Polygonum (Polygonum [4]): 100%; degree of damage to the plants (% damage), Datura (Datura): 100%; degree of damage to the plants (% damage), Veronica (Veronica): 100%; pest or weed control at 500 g/ha (Amaranthus [6]; greenhouse, after three weeks): 100% |
| CCC(CCc1ccccc1)Nc1nc(N)nc(C(F)(F)F)n1 (stereo not drawn) [Example 41] | strong activity |  |  |  |  |  | strong activity |  | 95% | 90% | 100% | 100% | 100% | 80% | pest or weed control at 1000 g/ha (Abutilon [3]; [19]): 100%; degree of damage to the plants (% damage), Setaria (Setaria [15]): 100%; pest or weed control at 1000 g/ha (Amaranthus [6]; [19]): 100%; pest or weed control at 1000 g/ha (Setaria [10]; [19]): 100%; pest or weed control at 1000 g/ha (Amaranthus [12]; [19]): 100% |
| CCC(COc1ccccc1)Nc1nc(N)nc(C(F)(F)F)n1 (stereo not drawn) [Example 4] |  |  |  |  |  |  | strong activity |  |  |  | 100% | 100% | 80% | 70% | degree of damage to the plants (% damage), Setaria (Setaria [10]; [19]): 100%; degree of damage to the plants (% damage), Amaranthus (Amaranthus [12]; [19]): 100% |
| CCC(CCc1ccccc1)Nc1nc(N)nc(C(F)(F)F)n1 (stereo not drawn) [Example 43] |  | 100% |  | 100% | 90% | 100% | strong activity | 100% |  |  | 100% | 100% | 70% |  | degree of damage to the plants (% damage), Wheat (Wheat [7]): 10%; degree of damage to the plants (% damage), Setaria (Setaria [10]; [19]): 100%; degree of damage to the plants (% damage), Amaranthus (Amaranthus [12]; [19]): 100% |
| CCC(COc1ccc(Cl)cc1)Nc1nc(N)nc(C(F)(F)F)n1 (stereo not drawn) [Example 44] |  |  |  |  |  |  | strong activity |  |  |  | 100% | 100% | 80% | 80% | pest or weed control at 1000 g/ha (Setaria [10]): 100%; pest or weed control at 1000 g/ha (Amaranthus [12]): 100% |
| CCC(CCc1ccccn1)Nc1nc(N)nc(C(C)F)n1 (stereo not drawn) [Example 21] | strong activity |  |  |  |  |  |  |  | 80% | 100% |  |  |  |  | pest or weed control at 1000 g/ha (Abutilon [3]; [19]): 90%; degree of damage to the plants (% damage), Setaria (Setaria [15]): 90%; pest or weed control at 1000 g/ha (Amaranthus [6]; [19]): 95% |
